In patent US20070082066A1, “Use of zeaxanthin to reduce light hyper-sensitivity, photophobia, and medical conditions relating to light hyper-sensitivity” (priority 2003, published 2007):

Experiments:
Format in all cases: in vivo, human
sunburns = experiment: Summertime exposure to direct sunlight, sunburn protection; settings: oral, about 30 to about 80 mg/day, summer of 2002, direct sunlight
From the text: Instead, this discovery arose out of observations that were made while zeaxanthin was being tried and evaluated by a number of people, to determine whether it could help protect the skin against sunburns. Because of various factors and events described in a separate patent application (Ser. No. 10/356,134, Gierhart et al; the contents of that application are incorporated herein by reference, as though fully set forth herein), the founder of ZeaVision (who is also one of the Inventors herein) became convinced that relatively high dosages of zeaxanthin, in the range of about 30 mg or greater per day, could increase the skin's ability to withstand direct sunlight without suffering a sunburn. Accordingly, several coworkers began taking zeaxanthin at dosages in a range of about 30 to about 80 mg/day, during the summer of 2002, to provide additional evaluation of the earliest results that had been seen.
(§1) Therefore, a patent application entitled “Protection Against Sunburn and Skin Problems with Orally-Ingested High-Dosage Zeaxanthin”, was drafted and filed in the autumn of 2002, as a provisional application, based on anecdotal evidence from several people. […] After those test data became available, the provisional patent application on sunburn prevention was expanded into a utility application.

[1] = Safety and tolerability in users taking zeaxanthin for macular degeneration; settings: 20 mg/day, thousands of users over the past few years
From the text: If no results are noticed at that level within about 2 to 4 weeks, the person can try a somewhat higher dosage during the next 2-4 weeks.

[2] = tested on: migraine or other severe headaches; experiment: Customer reports on frequency of migraine or other severe headaches; settings: a number of customers with migraine or recurrent headaches; zeaxanthin at 10 mg or more per day
light hyper-sensitivity = experiment: Customer and user reports on light hyper-sensitivity after taking zeaxanthin
From the text: When asked about it by the Applicants herein, they offered answers that were usually along the lines of, “I hadn't noticed that. But yeah, you're right. I haven't been wearing my sunglasses as much as I used to. I just don't feel like I need them as much, or as often.”
At roughly the same time, the customer service specialist at ZeaVision also began to receive sporadic comments from people who had purchased zeaxanthin capsules to treat or prevent macular degeneration.
These discoveries led the customer support staff at ZeaVision to begin routinely asking customers about light hyper-sensitivity, if they called in and wanted to discuss the visual improvements they were enjoying after they began taking zeaxanthin.

skin = experiment: Indoor tests with medical-grade ultraviolet lamp, before-and-after minimal erythemal dosages; settings: high-dosage zeaxanthin, winter season
From the text: as §1

CC1=C(/C=C/C(C)=C/C=C/C(C)=C/C=C/C=C(C)/C=C/C=C(C)/C=C/C2=C(C)C[C@@H](O)CC2(C)C)C(C)(C)C[C@H](O)C1 [zeaxanthin]
risk of sunburns (sunburns): can indeed reduce the risk of sunburns
safety and tolerability [1]: safe and well-tolerated
frequency of migraine or other severe headaches [2]: didn't seem to be having as many migraine or other severe headaches
light hyper-sensitivity, volunteered consumer comments (light hyper-sensitivity; consumers who purchased zeaxanthin capsules to treat or prevent macular degeneration, after vs before taking): suffering less from light hyper-sensitivity
use of sunglasses when driving or outdoors (light hyper-sensitivity; high-dosage zeaxanthin, several people working with ZeaVision, family members and friends, spring of 2003): had stopped using their sunglasses so much
unusual and unpleasant levels of light sensitivity, routine customer questioning (light hyper-sensitivity; nearly all of the roughly 30% of customers who reported light sensitivity, after they began taking zeaxanthin capsules): less severe and less troubling
light sensitivity evaluated separately from vision clarity (light hyper-sensitivity; nearly all patients who had reported increased light sensitivity, zeaxanthin at 10 mg or more per day): improved, significantly
skin-protective effects (minimal erythemal dosages before and after) (skin): strongly confirmed the skin-protective effects
